Results: patent publication US20220218714A1, “METHOD OF TREATING CANCER” (Epizyme, Inc., priority 2013, published 2022)

What was measured:
[1] = test system: H3K27me3 in HS-SY-II cells; assay: H3K27 methylation alterations, ELISA of extracted histones; assay type: cell-based, human; settings: 96 hours treatment
Method: (§1) HS-SY-II and SW982 cells were treated with either DMSO or Compound A starting at 40 nmol/L and decreasing in fourfold dilutions for 96 hours. Cells were washed by ice cold PBS, harvested by cell scraper, and lysed with 100 μL of nuclear extraction buffer (10 mM Tris-HCl, 10 mM MgCl2, 25 mM KCl, 1% Triton X-100, 8.6% Sucrose, plus × Halt Protease inhibitor cocktail (1861281, Thermo Scientific). Nuclei were collected by centrifugation at 600 g for 5 minutes at 4° C. and washed once with ice cold PBS. Supernatant was removed and histones extracted for one hour with 100 μL of 0.4 N cold sulfuric acid. Extracts were clarified by centrifugation at 10,000 g for 10 minutes at 4° C. and transferred to a fresh microcentrifuge tube containing 1 mL of ice cold acetone. Histones were precipitated at −20° C. for overnight, pelleted by centrifugation at 10,000 g for 10 minutes and resuspended in 100 μl of water. Histones were quantified using the BCA protein assay (23225, Pierce). The diluted histones were coated on Immulon 4HBX plates (3855, Thermo Scientific) overnight and ELISA was performed. […] Subsequently, the developed colors in the wells were measured using a plate spectrophotometer (SpectraMax 250, Molecular Devices) at 450 nm (reference wavelength 650 nm).
(§2) The range of ICso values (two independent experiments), shown in FIG. 6B, were determined by GraphPad Prism (GraphPad Software).

[2] = test system: H3K27me3 in SW982 cells; assay: as above; assay type: cell-based, human; settings: 96 hours treatment
Method: as §1, §2

[3] = PK values in HS-SY-II xenograft model (plasma concentration, LC/MS/MS); assay type: in vivo, mice; settings: oral twice daily for 7 days; 5 minutes before and 3 hours after the last dose
Method: HS-SY-II cells were harvested during mid-log phase growth, and resuspended in Hank balanced salt solution with 50% Matrigel (BD Biosciences). Balb/C-nu mice (Charles River Laboratories Japan) received 1×10^7 cells (0.1 mL cell suspension) subcutaneously in the right flank. Mice carrying tumors of approximately 200 mm^3 (31 days after injection) were sorted into treatment groups with similar mean tumor volumes. Compound A or vehicle (0.5% MC+0.1% Tween-80 in water) was administered at the indicated doses on twice a day for 7 days by oral gavage. Each dose was delivered in a volume of 0.2 mL/20 g mouse (10 mL/kg), and adjusted for the last recorded weight of individual animals. Peripheral blood samples were collected at approximately 5 minutes before and 3 hours after the last dose from Compound A-treated mice. After obtaining plasma samples by centrifugation, the analysis for plasma concentrations of Compound A was conducted by the liquid chromatography-tandem mass spectrometry (LC/MS/MS) method. The UPLC system (Acquity, Waters) equipped with a mass spectrometer (Quattro premier, MICROMASS) was used for quantification of Compound A. The concentrations are plotted (n=5) in FIG. 7A. Each bar represents a mean of plasma concentration in each group.

[4] = test system: H3K27me3 in HS-SY-II xenograft; assay: H3K27me3 ELISA of HS-SY-II xenograft tumors harvested on Day 28; assay type: in vivo, athymic nude mice; settings: Day 28, 3 h after the last dose; second study
Method: FIGS. 10A to 10C show mean in vivo tumor volumes for athymic nude mice bearing HS-SY-II xenografts. In a first study, mice were dosed with either vehicle (oral for 28 days or iv on Day 1 and Day 22), Compound A (oral: 125 mg/kg, 250 mg/kg, or 500 mg/kg for 28 days), or Doxorubicin (iv: 10 mg/kg, Day 1 and Day 22); tumor volumes were measured twice a week (FIGS. 10A and 10B). In a second study, mice were dosed with either vehicle (oral for 28 days), Compound A (oral: 250 mg/kg or 500 mg/kg for 28 days), Doxorubicin (iv: 10 mg/kg on Day 1 and Day 22), or a combination of Doxorubicin (iv: 10 mg/kg on Day 1 and Day 22) and Compound A (oral: 250 mg/kg for 28 days) (FIG. 10C). Tumors from animals of the second study were harvested on Day 28 (3 h after the last dose) and subjected to H3K27me3 analysis by ELISA (FIG. 10D) or IHC for the proliferation marker Ki67 (FIG. 10E).
For FIG. 10D, tumors were snap-frozen in liquid nitrogen. […] Histones were quantified using the BCA protein assay (23225, Pierce). […] Subsequently, the developed colors in the wells were measured using a plate spectrophotometer (SpectraMax 250, Molecular Devices) at 450 nm (reference wavelength 650 nm). The H3K27me3 levels were adjusted to total histone H3, and expressed as fold changes to vehicle control. […] Histones were extracted and quantified, and the levels of H3K27me3 were analyzed as described above. […]

plasma concentrations [3]: Dose dependent exposure
Structure (SMILES): CCN(c1cc(-c2ccc(CN3CCOCC3)cc2)cc(C(=O)NCc2c(C)cc(C)[nH]c2=O)c1C)C1CCOCC1 [Compound A]
ratio of H3K27me3/total H3 (ratio to control) [1]: decreased
ratio of H3K27me3/total H3 (ratio to control) [2]: decreased
H3K27me3 levels in tumors (fold change to vehicle control) [4]: significantly reduced
